Test results from patent US20120308567A1, “USE OF TYROSINE KINASE INHIBITORS FOR TREATMENT OF PROLACTINOMA” (CEDARS-SINAI MEDICAL CENTER, priority 2010, published 2012).

Assays:
human prolactinoma cells = assay: RIA of PRL in culture media of primary human prolactinoma cell cultures; assay type: cell-based; settings: for suppression of PRL secretion into the culture medium: 24 hr
Experimental: A, B, D, and E. After trans-sphenoidal surgery of human prolactinomas, tumor cells were cultured. […] PRL levels in culture media were measured using RIA (B). H&E and PRL staining of tumor and confocal immunocytochemistry of EGFR and HER2 (Tumor A) (C), or for Tumor B (F). Magnification of these figures was 100×. […] PRL levels in culture media were measured using RIA (E). Prolactinoma cells (Tumor B) were treated with U0126 (0.1-5 μM) for 24 hr, and Realtime PCR of PRL performed (G).
Human prolactinoma tissues were obtained at the time of surgery (Pituitary Center, Cedars-Sinai Medical Center) and transferred in 0.3% BSA containing DMEM according to an IRB-approved protocol. After washing with medium, tumor tissues were chopped with a sterile scalpel into approximately 1-2 mm pieces. Tissues were rinsed and digested with DMEM containing 0.3% BSA, 0.35% collagenase, and 0.15% hyaluronidase at 37° C. for 30 min The mixture was centrifuged at 1,500 rpm for 5 min at 4° C., and the cell pellet resuspended in an appropriate volume of culture medium containing 10% FBS and antibiotics in 48 well plates. After 24 hr incubation with serum depleted starvation medium (DMEM with 0.3% BSA), treatment agents were added with fresh serum-depleted medium (0.3% BSA), and medium collected for RIA. RNA was extracted after 24 hr treatment. Medium was also collected at baseline. To normalize for cell number effect, the PRL value of treated medium was divided by that of pre-treatment starvation medium to obtain a treated value for each well (n=4).

[1] = test system: GH3 cells stably expressing HER2CA; assay: Cell proliferation assay (cell counts); assay type: cell-based, rat; settings: for cell number: HER2CA GH3 cells, 0.1-10 μM, 24 h treatment
Experimental: pcDNA3 and HER2CA cells were plated at a density of 2×10^4 per well in 12-well plates or 4×10^3 cells per well in 96-well plates with growth medium. For 12-well plates, cells were counted by hemocytometer at the indicated times. For 96-well plates, premixed WST-1 cell proliferation reagent (Roche Molecular Biochemicals) was added (1:10) at the indicated times and incubated for 4 h at 37° C. in a humidified atmosphere maintained at 5% CO2, and absorbance was then measured at 450 nm. WST-1 is a colorimetric assay for quantification of cell proliferation and cell viability, based on the cleavage of the tetrazolium salt by mitochondrial dehydrogenases in viable cells.

[2] = test system: GH3 cells stably expressing HER2CA; assay: Soft agarose colony-forming assay, HER2CA transfectants; assay type: cell-based, rat; settings: for suppression of colony formation in soft agar: Her2CA-GH3 cells
Experimental: B. GH3 cells stably expressing HER2CA or pcDNA3 were plated (4,000 per well) in 96 well plates for the indicated times, and WST assay performed. C. […] Values are mean±SEM. *p<0.05, ** p<0.01, ^‡p<0.05 vs pcDNA3 control, ^†p<0.05 vs HER2CA control, ^‡‡p<0.05 vs pcDNA3 control, ^††p<0.05 vs HER2CA control.
Base layers consisting of growth medium containing 0.6% low-melting point agarose (Invitrogen) were poured onto 6-well plates and allowed to solidify. Cells (8×10^3 per well) were plated in triplicate in top layers consisting of growth medium containing 0.3% agarose. Seven to ten days later, cells were stained with 0.2% iodonitrotetrazolium chloride (Invitrogen), and colonies composed of 50 cells were counted manually in 5 randomly selected fields.

[3] = test system: GH3 cells stably expressing HER2CA; assay: RIA of PRL and GH secretion in culture medium of GH3 stable transfectants; assay type: cell-based, rat; settings: HER2CA GH3 cells, 1 μM
Experimental: μM) for the indicated times, and Realtime PCR analysis performed. C. GH and PRL secretion in the culture medium determined by RIA. Hormone secretion levels were normalized for cell numbers, Values are mean±SEM. *p<0.05, **p<0.01.
GH3 rat lacto-somatotroph tumor cells secreting PRL and GH were purchased from the American Type Culture Collection. HER2CA cells were generated by transfection with pcDNA3-HER2CA (V654E) purchased from Addgene (Addgene plasmid 16259). Stable colonies were selected in the presence of 500 μg/ml G418 (Invitrogen). A vector control cell line pcDNA3 was simultaneously established by transfecting pcDNA3 that lacked inserted cDNA. After selection and propagation of stable transfectants, cells were cultured in DMEM/F12 medium containing 15% horse serum, 2.5% FBS, penicillin/streptomycin, and 500 μg/m G418. After synchronization by serum starvation (medium containing 0.2% bovine serum albumin for ˜24 h), cells with treatment agents was grown in fresh serum-depleted medium (0.2% bovine serum albumin), and samples collected at the indicated times.
RIAs for rat GH and PRL were performed in duplicate, using reagents provided by the National Hormone and Pituitary Program, National Institute of Diabetes and Digestive and Kidney Diseases (Harbor-UCLA Medical Center, Torrance, Calif., USA). Iodination of GH and PRL (5 μg) with iodine-125 (500 μCi) (PerkinElmer life & Analytical Sciences, Boston, Mass., USA) mixed with 0.1 mg Iodo-Gen (Pierce, Rockford, Ill.) was performed using 10-ml columns prepared by G-75 Sephadex (Sigma Chemical Co.). Low interspecies cross-reactivity of the GH and PRL assays were previously shown (8).

[4] = test system: GH3 cells stably expressing HER2CA; assay: Realtime PCR of PRL and GH mRNA in GH3 stable transfectants; assay type: cell-based, rat; settings: for suppression of PRL expression: Her2CA-GH3 cells
Experimental: A. […] C. GH and PRL secretion in the culture medium determined by RIA. Hormone secretion levels were normalized for cell numbers, Values are mean±SEM. *p<0.05, **p<0.01. […] GH3 rat lacto-somatotroph tumor cells secreting PRL and GH were purchased from the American Type Culture Collection. HER2CA cells were generated by transfection with […]) purchased from Addgene (Addgene plasmid 16259). Stable colonies were selected in the presence of 500 μg/ml G418 (Invitrogen). A vector control cell line pcDNA3 was simultaneously established by transfecting pcDNA3 that lacked inserted cDNA. […] After synchronization by serum starvation (medium containing 0.2% bovine serum albumin for 24 h), cells with treatment agents was grown in fresh serum-depleted medium (0.2% bovine serum albumin), and samples collected at the indicated times. Total RNA was extracted with Trizol reagent (Invitrogen) according to instructions of the manufacturer. The amount and the integrity of RNA were assessed by measurement of absorbance at 260 and 280 nm. Total RNA was reverse-transcribed into first-strand cDNA using iScript cDNA synthesis kit (Bio-Rad Laboratories, Inc.) according to the manufacturer. Quantitative PCR reactions were carried out in the iQ5 Multicolor Real-time PCR Detection System (Bio-Rad Laboratories, Inc.) as described (8). […] Primer sequences (Invitrogen) were [NT] rRNA forward ([…] rRNA reverse ([NT] (human (3-actin [NT] (human (3-actin […]).

[5] = Tumor A, lapatinib 0.1-10 μM or gefitinib 10 μM

Row | Structure (SMILES) | suppression of PRL secretion into the culture medium (human prolactinoma cells; [5]) [%] | suppression of PRL secretion into the culture medium (human prolactinoma cells; Tumor B, 0.01-10 μM) [%] | cell number [1] | suppression of colony formation in soft agar [2] [%] | PRL secretion, time course of suppression ([3]; 24 and 48 h) | suppression of PRL expression [4] [%] | suppression of human PRL secretion (human prolactinoma cells; human primary prolactinoma tumor cell cultures, tumor not named) [%] | suppression of cell number, HER2 overexpressing vs pcDNA3 transfectants ([1]; pcDNA3 and HER2CA transfectants compared) | colony formation in soft agar ([2]; HER2CA GH3 cells, 0.1-10 μM every third day) | suppression of PRL secretion ([3]; 24 h) [%] | suppression of PRL secretion ([3]; 48 h) [%] | PRL mRNA levels ([4]; HER2CA GH3 cells, 1 μM)
1 | COc1cc2ncnc(Nc3ccc(F)c(Cl)c3)c2cc1OCCCN1CCOCC1 [gefitinib] | ~50 | ~40 | decreased in a dose-dependent manner | ~50 | suppressed PRL secretion only at 24 h | ~50 |  |  |  |  |  | 
2 | CS(=O)(=O)CCNCc1ccc(-c2ccc3ncnc(Nc4ccc(OCc5cccc(F)c5)c(Cl)c4)c3c2)o1 [lapatinib, Lapatinib] | ~70 | ~60 | decreased in a dose-dependent manner | ~80 |  | ~70 | ~70 | enhanced in HER2 overexpressing transfectants | fewer HER2CA colonies | 40 | 40 | more marked suppression
